Common to all, as to type: binding
The target of assay [1] is T1, human SSTR5 (Homo sapiens, UniProt P35346).
T1 construct: expressed in transfected cells; host or cells: CHO-K1 cells and CCL39 cells
The experiment in a line: Displacement of 125I-[Leu8,D-Trp22,Tyr25]-somatostatin-28 from cloned SSTR5 (receptor autoradiography on membrane pellets). As to the method:
(§1) Generally, recombinant cells expressing the receptor are washed and homogenized to prepare a crude protein homogenate in a suitable buffer, as known in the art. In a typical assay, an amount of protein from the cell homogenate is placed into a small volume of an appropriate assay buffer at an appropriate pH. Candidate substances, such as potential SRIF agonists and antagonists, are added to the admixture in convenient concentrations, and the interaction between the candidate substance and the receptor polypeptide is monitored.
(§2) Receptor binding assays are performed on cloned SRIF receptors as generally set forth in Raynor et al. supra. Using such assays, one can generate KD values which are indicative of the concentration of a ligand necessary to occupy one-half (50%) of the binding sites on a selected amount of a receptor or the like, or alternatively, competitive assays can generate IC50 values which are indicative of the concentration of a competitive ligand necessary to displace a saturation concentration of a target ligand being measured from 50% of binding sites. The peptide des-AA^1,2,4,5,12,13-[D-Agl^8(Me,2-naphthoyl)]SRIF inhibits the binding to SSTR3 of an iodinated SRIF-28 ligand that has strong affinity for all five receptors.
(§3) In vitro Bioassay: The various somatostatin analogs are tested in vitro for their ability to bind to isolated cloned receptors expressed on CHO-K1 cells and CCL39 cells. CHO-K1 cells are grown in Ham's F-12 medium, and CCL39 cells are grown in Dulbecco's modified Eagle's medium/Ham's F-12(1:1) mix, supplemented with 10% fetal bovine serum, 100 U/ml penicillin and 100 μg/ml streptomycin, in humidified air containing 5% CO2 at 37° C.
(§4) Cells are washed twice with and scraped into ice-cold 0.05 M Tris-HCl (pH 7.4), collected by centrifugation, and homogenized using a rotor/stator slash system in the same buffer. After centrifugation at 120 g for 5 min. at 4° C., the supernatant is collected and centrifuged again at 48,000 g for 30 min. at 4° C. The resulting pellet is resuspended in ice-cold Tris buffer, transferred into a microfuge tube, and centrifuged at 20,000 g for 15 min. at 4° C. After withdrawal of the supernatant, the membrane pellet is stored at −80° C.
Receptor autoradiography is performed on 20 μm thick cryostat sections of the membrane pellets, mounted on microscope slides, and then stored at −20° C. For each of the tested compounds, complete displacement experiments are performed with the universal somatostatin ligand radioligand ^125I-[Leu^8,D-Trp^22,Tyr^25]-somatostatin-28 that binds with strong affinity to all five receptors. […] Unlabeled somatostatin-28 is run in parallel using the same increasing concentrations, as a control. IC50 values are calculated after quantification of the data using a computer-assisted image processing system as known in this art.
(§5) The potencies of certain SRIF analogs to inhibit radioligand binding of ^125I-[Leu^8,D-Trp^22,[…]]SRIF-28 to the various cloned SRIF receptors are shown in the following table wherein the IC50 values are given in nanomolar concentration.

Assay [2] addresses T2, human SSTR3 (Homo sapiens, UniProt P32745).
T2 construct: expressed in transfected cells; host or cells: CHO-K1 cells and CCL39 cells
The experiment in a line: Displacement of 125I-[Leu8,D-Trp22,Tyr25]-somatostatin-28 from cloned SSTR3 (receptor autoradiography on membrane pellets). The note with it: for relative potency at SSTR3 by comparison to SRIF-28: binding affinity relative to SRIF-28 (=1); for binding strength and selectivity for SSTR3, in words: qualitative statement. As to the method: as §1, §2, §3, §4
Receptor autoradiography is performed on 20 μm thick cryostat sections of the membrane pellets, mounted on microscope slides, and then stored at −20° C. For each of the tested compounds, complete displacement experiments are performed with the universal somatostatin ligand radioligand ^125I-[Leu^8,D-Trp^22,Tyr^25]-somatostatin-28 that binds with strong affinity to all five receptors. Increasing concentrations of the unlabeled peptide are used ranging from 0.1-1000 nM. Unlabeled somatostatin-28 is run in parallel using the same increasing concentrations, as a control. IC50 values are calculated after quantification of the data using a computer-assisted image processing system as known in this art.
as §5

In assay [3] the target is T3, human SSTR2 (Homo sapiens, UniProt P30874).
T3 construct: expressed in transfected cells; host or cells: CHO-K1 cells and CCL39 cells
The experiment in a line: Displacement of 125I-[Leu8,D-Trp22,Tyr25]-somatostatin-28 from cloned SSTR2 (receptor autoradiography on membrane pellets). As to the method: as §1
(§6) Receptor binding assays are performed on cloned SRIF receptors as generally set forth in Raynor et al. supra. Using such assays, one can generate KD values which are indicative of the concentration of a ligand necessary to occupy one-half (50%) of the binding sites on a selected amount of a receptor or the like, or alternatively, competitive assays can generate IC50 values which are indicative of the concentration of a competitive ligand necessary to displace a saturation concentration of a target ligand being measured from 50% of binding sites.
as §3, §4
(§7) Receptor autoradiography is performed on 20 μm thick cryostat sections of the membrane pellets, mounted on microscope slides, and then stored at −20° C. […] […] Unlabeled somatostatin-28 is run in parallel using the same increasing concentrations, as a control. IC50 values are calculated after quantification of the data using a computer-assisted image processing system as known in this art.

The target of assay [4] is T4, human SSTR4 (Homo sapiens, UniProt P31391).
T4 construct: expressed in transfected cells; host or cells: CHO-K1 cells and CCL39 cells
Description: Displacement of 125I-[Leu8,D-Trp22,Tyr25]-somatostatin-28 from cloned SSTR4 (receptor autoradiography on membrane pellets). As to the method: as §1, §6, §3, §4, §7

For assay [5], the target named is T5, human SSTR1 (Homo sapiens, UniProt P30872).
T5 construct: expressed in transfected cells; host or cells: CHO-K1 cells and CCL39 cells
The experiment in a line: Displacement of 125I-[Leu8,D-Trp22,Tyr25]-somatostatin-28 from cloned SSTR1 (receptor autoradiography on membrane pellets). As to the method: as §1, §6, §3, §4, §7

Where [6] appears, read: inhibition of 125I-[Leu8,D-Trp22,Tyr24]SRIF-28 binding, cloned receptor, read-out: IC50 (nM) mSSTR5.
Setting [7] is: inhibition of 125I-[Leu8,D-Trp22,Tyr24]SRIF-28 binding, cloned receptor, read-out: IC50 (nM) mSSTR3.
The mark [8] stands for this setting: iodinated SRIF-28 ligand, cloned human receptor, read-out: IC50 at cloned human SSTR3.
[9] abbreviates: inhibition of 125I-[Leu8,D-Trp22,Tyr24]SRIF-28 binding, cloned receptor, read-out: IC50 (nM) mSSTR2.
The mark [10] stands for this setting: inhibition of 125I-[Leu8,D-Trp22,Tyr24]SRIF-28 binding, cloned receptor, read-out: IC50 (nM) mSSTR4.
[11] abbreviates: inhibition of 125I-[Leu8,D-Trp22,Tyr24]SRIF-28 binding, cloned receptor, read-out: IC50 (nM) mSSTR1.

“Also recorded” adds a separate entry of the source. Read-outs that look alike come from different tables or passages of the source. Some results are limits rather than exact numbers.

T3 sequence (P30874 whole entry): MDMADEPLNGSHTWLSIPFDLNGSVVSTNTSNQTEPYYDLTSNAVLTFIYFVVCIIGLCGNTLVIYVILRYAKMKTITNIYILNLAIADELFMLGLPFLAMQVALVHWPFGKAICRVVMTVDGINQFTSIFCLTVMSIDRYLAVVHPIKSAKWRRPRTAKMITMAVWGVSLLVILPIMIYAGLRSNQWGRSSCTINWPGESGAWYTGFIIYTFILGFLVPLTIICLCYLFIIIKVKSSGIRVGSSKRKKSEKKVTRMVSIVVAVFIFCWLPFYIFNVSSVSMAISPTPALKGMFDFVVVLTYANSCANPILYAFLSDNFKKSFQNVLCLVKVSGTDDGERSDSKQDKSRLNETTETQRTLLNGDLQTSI
T1 sequence (P35346 whole entry): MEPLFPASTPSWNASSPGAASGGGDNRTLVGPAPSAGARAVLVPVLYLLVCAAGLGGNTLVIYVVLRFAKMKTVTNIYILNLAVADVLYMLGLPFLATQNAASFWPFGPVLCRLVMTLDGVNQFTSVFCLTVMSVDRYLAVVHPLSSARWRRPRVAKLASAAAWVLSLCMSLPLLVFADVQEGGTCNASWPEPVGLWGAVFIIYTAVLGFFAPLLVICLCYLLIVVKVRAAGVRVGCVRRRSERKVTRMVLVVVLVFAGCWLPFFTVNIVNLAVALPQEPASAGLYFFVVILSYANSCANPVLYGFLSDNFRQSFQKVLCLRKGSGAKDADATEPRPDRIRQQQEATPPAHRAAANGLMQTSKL
T4 sequence (P31391 whole entry): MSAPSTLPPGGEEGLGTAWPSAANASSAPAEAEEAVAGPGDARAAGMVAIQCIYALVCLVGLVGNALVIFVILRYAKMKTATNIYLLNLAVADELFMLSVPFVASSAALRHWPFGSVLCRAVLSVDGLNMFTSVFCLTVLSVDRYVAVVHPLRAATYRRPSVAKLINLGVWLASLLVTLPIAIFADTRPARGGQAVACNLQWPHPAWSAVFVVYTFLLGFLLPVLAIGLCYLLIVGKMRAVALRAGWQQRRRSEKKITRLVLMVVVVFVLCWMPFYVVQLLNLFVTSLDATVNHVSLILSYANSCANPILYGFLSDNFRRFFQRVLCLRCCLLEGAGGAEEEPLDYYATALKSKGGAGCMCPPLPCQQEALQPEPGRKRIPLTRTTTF
T2 sequence (P32745 whole entry): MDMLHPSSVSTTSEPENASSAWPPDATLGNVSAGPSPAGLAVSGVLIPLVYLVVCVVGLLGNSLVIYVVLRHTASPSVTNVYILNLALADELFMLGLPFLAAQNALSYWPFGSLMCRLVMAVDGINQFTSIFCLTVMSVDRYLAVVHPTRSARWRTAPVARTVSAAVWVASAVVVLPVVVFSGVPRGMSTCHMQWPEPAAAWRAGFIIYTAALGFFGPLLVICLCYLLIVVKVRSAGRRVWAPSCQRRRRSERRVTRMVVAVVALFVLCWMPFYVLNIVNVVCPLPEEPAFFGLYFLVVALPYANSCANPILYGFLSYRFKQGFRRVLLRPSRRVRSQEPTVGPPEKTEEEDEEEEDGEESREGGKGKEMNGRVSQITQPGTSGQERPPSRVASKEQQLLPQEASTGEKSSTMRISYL
T5 sequence (P30872 whole entry): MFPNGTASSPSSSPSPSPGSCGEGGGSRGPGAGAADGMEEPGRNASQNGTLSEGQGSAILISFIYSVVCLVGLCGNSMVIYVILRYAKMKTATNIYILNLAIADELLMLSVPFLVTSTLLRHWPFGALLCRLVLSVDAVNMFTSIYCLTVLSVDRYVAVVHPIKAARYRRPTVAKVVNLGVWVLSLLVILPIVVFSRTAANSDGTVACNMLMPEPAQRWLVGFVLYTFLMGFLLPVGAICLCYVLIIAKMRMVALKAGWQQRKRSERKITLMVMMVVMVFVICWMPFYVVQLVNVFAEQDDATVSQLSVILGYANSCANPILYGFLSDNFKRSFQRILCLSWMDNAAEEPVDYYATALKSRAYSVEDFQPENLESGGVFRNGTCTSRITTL

Regarding `C[C@@H](O)[C@@H]1NC(=O)[C@H](CCCCN)NC(=O)[C@@H](N(C)C(=O)c2ccc3ccccc3c2)NC(=O)[C@H](Cc2ccc(O)cc2)NC(=O)[C@H](Cc2ccccc2)NC(=O)[C@@H](N)CSSC[C@@H](C(=O)O)NC(=O)[C@H](Cc2ccccc2)NC1=O` [Peptide No. 2, (cyclo)H-Cys-Phe-Tyr-D-Agl(Me,2Np)-Lys-Thr-Phe-Cys-OH], the IC50 in assay [1] (setting [6]) is over 10000 nM; in assay [2] (setting [7]), 70 ± 18 nM; in assay [2] (setting [8]), about 70 nM; in assay [3] (setting [9]) it was over 10000 nM; in assay [4] (setting [10]) it was over 1000 nM; in assay [5] (setting [11]), over 10000 nM. Also, the “effect on binding of the SRIF-28 radioligand to human SSTR5” value in assay [1] (peptide at 100 nM) is “minimal effects”. Further, the “relative potency at SSTR3 by comparison to SRIF-28” value (from here on “relative potency at SSTR3”) in assay [2] was “about 0.13”. For the same molecule, the “binding strength and selectivity for SSTR3, in words” value (“binding strength and selectivity” below) was “selectively bound to SSTR3” in assay [2]; “bind strongly and selectively to SSTR3” in assay [2] (listed as Peptide 2). The “effect on binding of the SRIF-28 radioligand to human SSTR2” value in assay [3] (peptide at 100 nM) was “minimal effects”. Moreover, the “effect on binding of the SRIF-28 radioligand to human SSTR4” value in assay [4] (peptide at 100 nM) was “minimal effects”. Moreover, the “effect on binding of the SRIF-28 radioligand to human SSTR1” value in assay [5] (peptide at 100 nM) is given as “minimal effects”.
For the molecule `C[C@@H](O)[C@@H]1NC(=O)[C@H](CCCCN)NC(=O)[C@@H](N(C)C(=O)c2ccc3ccccc3c2)NC(=O)[C@H](Cc2ccc(O)cc2)NC(=O)[C@H](Cc2ccccc2)NC(=O)[C@H](N)CSSC[C@@H](C(=O)O)NC(=O)[C@H](Cc2ccccc2)NC1=O` [Peptide No. 2A, (cyclo 3-14)H-D-Cys-Phe-Tyr-D-Agl(Me,2Np)-Lys-Thr-Phe-Cys-OH], the IC50 was over 10000 nM in assay [1] (setting [6]); 39 ± 11 nM in assay [2] (setting [7]); about 39 nM in assay [2] (setting [8]); over 10000 nM in assay [3] (setting [9]); over 10000 nM in assay [4] (setting [10]); over 10000 nM in assay [5] (setting [11]). In assay [2], the “relative potency at SSTR3” value is recorded as “about 0.24”. In addition, the “binding strength and selectivity” value in assay [2] was “selectively binds to SSTR3”; in assay [2] (listed as Peptide 2A) it was “bind strongly and selectively to SSTR3”.
On to `C[C@@H](O)[C@@H]1NC(=O)[C@H](CCCCN)NC(=O)[C@@H](N(C)C(=O)c2ccc3ccccc3c2)NC(=O)[C@H](Cc2ccccc2)NC(=O)[C@H](Cc2ccccc2)NC(=O)[C@@H](N)CSSC[C@@H](C(=O)O)NC(=O)[C@H](Cc2ccccc2)NC1=O` [Peptide No. 2B, (cyclo 3-14)H-Cys-Phe-Phe-D-Agl(Me,2Np)-Lys-Thr-Phe-Cys-OH], for which the IC50 in assay [1] (setting [6]) is over 10000 nM; in assay [1] (iodinated SRIF-28 ligand, cloned human receptor, read-out: concentration below which no binding to human SSTR5) it was over 10000 nM; in assay [2] (setting [7]), 70 ± 17 nM; in assay [2] (setting [8]), about 70 nM; in assay [3] (setting [9]), over 10000 nM; in assay [3] (iodinated SRIF-28 ligand, cloned human receptor, read-out: concentration below which no binding to human SSTR2), over 10000 nM. For the same molecule, the IC50 in assay [4] (setting [10]) is over 10000 nM; in assay [4] (iodinated SRIF-28 ligand, cloned human receptor, read-out: concentration below which no binding to human SSTR4), over 1000 nM; in assay [5] (setting [11]) it was over 10000 nM; in assay [5] (iodinated SRIF-28 ligand, cloned human receptor, read-out: concentration below which no binding to human SSTR1), over 10000 nM. For the same molecule, the “relative potency at SSTR3” value in assay [2] is “about 0.13”. Further, in assay [2] (iodinated SRIF-28 ligand, cloned human receptor), the “IC50 at cloned human SSTR3” value was “about the same as No. 2”. Further, the “binding strength and selectivity” value in assay [2] was “selectively binds to SSTR3”; in assay [2] (listed as Peptide 2B), “bind strongly and selectively to SSTR3”.
For the molecule `C[C@@H](O)[C@@H]1NC(=O)[C@H](CCCCN)NC(=O)[C@@H](N(C)C(=O)c2ccc3ccccc3c2)NC(=O)[C@H](Cc2ccc(Cl)cc2)NC(=O)[C@H](Cc2ccccc2)NC(=O)[C@@H](N)CSSC[C@@H](C(=O)O)NC(=O)[C@H](Cc2ccccc2)NC1=O` [Peptide No. 2C, (cyclo 3-14)H-Cys-Phe-4ClPhe-D-Agl(Me,2Np)-Lys-Thr-Phe-Cys-OH], the IC50 in assay [1] (setting [6]) was over 10000 nM; in assay [2] (setting [7]), 300 nM; in assay [3] (setting [9]) it was over 1000 nM; in assay [4] (setting [10]) it was over 10000 nM; in assay [5] (setting [11]), over 1000 nM. The “binding strength and selectivity” value in assay [2] (listed as Peptide 2C) was “bind strongly and selectively to SSTR3; also recorded: slightly less selective”.
Regarding “(cyclo 3-14)Cbm-D-Cys-Phe-Agl(NMe,Bz)-D-2Nal-Lys-Thr-Phe-Cys-OH [Peptide No. 3C]”, the “binding strength and selectivity” value in assay [2] is “bind selectively to human SSTR3”.
Regarding “(cyclo 3-14)Cbm-D-Cys-Phe-Tyr-D-Agl(Me,2Np)-Lys-Thr-Aph(Ac)-Cys-OH [Peptide No. 2M]”, the “binding strength and selectivity” value in assay [2] is “bind strongly and selectively to SSTR3”.
“(cyclo 3-14)Cbm-D-Cys-Phe-Tyr-D-Agl(Me,2Np)-Lys-Thr-Aph(Cbm)-Cys-OH [Peptide No. 2N]”: the “binding strength and selectivity” value in assay [2] is “bind strongly and selectively to SSTR3”.
Still for that read-out and setting: the same measure for “(cyclo 3-14)Cbm-D-Cys-Phe-Tyr-D-Agl(Me,2Np)-Lys-Thr-Aph-Cys-OH [Peptide No. 2L]”: “bind strongly and selectively to SSTR3”; for “(cyclo 3-14)H-Cys-Lys-Asn-Phe-Tyr-D-Agl(Me,2Np)-Lys-Thr-Phe-Thr-Ser-Cys-OH [Peptide No. 2G]”: “binds selectively to SSTR3 but has fairly low affinity for all five SRIF receptors”.
Still for that read-out and setting: the same measure for “(cyclo 3-14)H-Cys-Phe-Agl(Me,Bz)-D-1Nal-Lys-Thr-Phe-Cys-OH [Peptide No. 3B]”: “bind selectively to human SSTR3”; for “(cyclo 3-14)H-D-Cys-Phe-Agl(NMe,Bz)-D-2Nal-Lys-Thr-Phe-Cys-OH [Peptide No. 3A]”: “bind selectively to SSTR3”.

These data come from US6579967B1, “Receptor-selective somatostatin analogs” (The Salk Institute for Biological Studies, priority 1999, dated 2003).
